Measured values: ChEMBL document CHEMBL3862012, “Methylene versus carbonyl bridge in the structure of new tubulin polymerization inhibitors with tricyclic A-rings” (Bioorg Med Chem, 2016)

Legend:
[1] = Cytotoxicity against human A549 cells assessed as growth inhibition at 10 uM after 48 hrs by SRB assay relative to control; type: functional; settings: A549, 48 h, read-out: GI
[2] = Cytotoxicity against human DU145 cells assessed as growth inhibition at 10 uM after 48 hrs by SRB assay relative to control; type: functional; settings: DU-145, 48 h, read-out: GI
[3] = Cytotoxicity against human HT-29 cells assessed as growth inhibition at 10 uM after 48 hrs by SRB assay relative to control; type: functional; settings: HT-29, 48 h, read-out: GI
[4] = Cytotoxicity against human OVCAR3 cells assessed as growth inhibition at 10 uM after 48 hrs by SRB assay relative to control; type: functional; settings: OVCAR-3, 48 h, read-out: GI
Ovis aries = species: Ovis aries; assay: Inhibition of sheep brain tubulin polymerization at 100 uM by DAPI staining-based fluorimetric method relative to control
[5] = Cytotoxicity against human CCRF-CEM cells assessed as growth inhibition at 10 uM after 48 hrs by SRB assay relative to control; type: functional; settings: read-out: GI
[6] = Cytotoxicity against human IGROV1 cells assessed as growth inhibition at 10 uM after 48 hrs by SRB assay relative to control; type: functional; settings: IGROV-1, 48 h, read-out: GI
[7] = Cytotoxicity against human BT549 cells assessed as growth inhibition at 10 uM after 48 hrs by SRB assay relative to control; type: functional; settings: BT-549, 48 h, read-out: GI
[8] = Cytotoxicity against human PC3 cells assessed as growth inhibition at 10 uM after 48 hrs by SRB assay relative to control; type: functional; settings: PC-3, 48 h, read-out: GI
[9] = Cytotoxicity against human NCI-H522 cells assessed as growth inhibition at 10 uM after 48 hrs by SRB assay relative to control; type: functional; settings: NCI-H522, 48 h, read-out: GI
[10] = Cytotoxicity against human OVCAR5 cells assessed as growth inhibition at 10 uM after 48 hrs by SRB assay relative to control; type: functional; settings: OVCAR-5, 48 h, read-out: GI
[11] = Cytotoxicity against human SF539 cells assessed as growth inhibition at 10 uM after 48 hrs by SRB assay relative to control; type: functional; settings: SF-539, 48 h, read-out: GI
[12] = Cytotoxicity against human SNB75 cells assessed as growth inhibition at 10 uM after 48 hrs by SRB assay relative to control; type: functional; settings: SNB-75, 48 h, read-out: GI
[13] = Cytotoxicity against human HOP62 cells assessed as growth inhibition at 10 uM after 48 hrs by SRB assay relative to control; type: functional; settings: HOP-62, 48 h, read-out: GI
[14] = Cytotoxicity against human MDA-MB-231 cells assessed as growth inhibition at 10 uM after 48 hrs by SRB assay relative to control; type: functional; settings: MDA-MB-231, 48 h, read-out: GI
[15] = Cytotoxicity against human EKVX cells assessed as growth inhibition at 10 uM after 48 hrs by SRB assay relative to control; type: functional; settings: read-out: GI
[16] = Cytotoxicity against human SF295 cells assessed as growth inhibition at 10 uM after 48 hrs by SRB assay relative to control; type: functional; settings: SF-295, 48 h, read-out: GI
[17] = Cytotoxicity against human U251 cells assessed as growth inhibition at 10 uM after 48 hrs by SRB assay relative to control; type: functional; settings: U-251, 48 h, read-out: GI
[18] = Cytotoxicity against human Caki1 cells assessed as growth inhibition at 10 uM after 48 hrs by SRB assay relative to control; type: functional; settings: CAKI-1, 48 h, read-out: GI
[19] = Cytotoxicity against human MDA-MB-435 cells assessed as growth inhibition at 10 uM after 48 hrs by SRB assay relative to control; type: functional; settings: MDA-MB-435, 48 h, read-out: GI
[20] = Cytotoxicity against human 786-0 cells assessed as growth inhibition at 10 uM after 48 hrs by SRB assay relative to control; type: functional; settings: 786-0, 48 h, read-out: GI
[21] = Cytotoxicity against human ACHN cells assessed as growth inhibition at 10 uM after 48 hrs by SRB assay relative to control; type: functional; settings: read-out: GI
[22] = Cytotoxicity against human M14 cells assessed as growth inhibition at 10 uM after 48 hrs by SRB assay relative to control; type: functional; settings: M14, 48 h, read-out: GI
[23] = Cytotoxicity against human OVCAR4 cells assessed as growth inhibition at 10 uM after 48 hrs by SRB assay relative to control; type: functional; settings: OVCAR-4, 48 h, read-out: GI
[24] = Cytotoxicity against human UO31 cells assessed as growth inhibition at 10 uM after 48 hrs by SRB assay relative to control; type: functional; settings: UO-31, 48 h, read-out: GI
[25] = Cytotoxicity against human SF268 cells assessed as growth inhibition at 10 uM after 48 hrs by SRB assay relative to control; type: functional; settings: SF-268, 48 h, read-out: GI
[26] = Cytotoxicity against human NCI-H460 cells assessed as growth inhibition at 10 uM after 48 hrs by SRB assay relative to control; type: functional; settings: NCI-H460, 48 h, read-out: GI
[27] = Cytotoxicity against human MDA-MB-468 cells assessed as growth inhibition at 10 uM after 48 hrs by SRB assay relative to control; type: functional; settings: MDA-MB-468, 48 h, read-out: GI
[28] = Cytotoxicity against human MCF7 cells assessed as growth inhibition at 10 uM after 48 hrs by SRB assay relative to control; type: functional; settings: MCF7, 48 h, read-out: GI
[29] = Cytotoxicity against human SKOV3 cells assessed as growth inhibition at 10 uM after 48 hrs by SRB assay relative to control; type: functional; settings: SK-OV-3, 48 h, read-out: GI
[30] = Cytotoxicity against human SK-MEL-2 cells assessed as growth inhibition at 10 uM after 48 hrs by SRB assay relative to control; type: functional; settings: SK-MEL-2, 48 h, read-out: GI
[31] = Cytotoxicity against human MALME-3M cells assessed as growth inhibition at 10 uM after 48 hrs by SRB assay relative to control; type: functional; settings: read-out: GI
[32] = Cytotoxicity against human HOP92 cells assessed as growth inhibition at 10 uM after 48 hrs by SRB assay relative to control; type: functional; settings: HOP-92, 48 h, read-out: GI
[33] = Cytotoxicity against human SW620 cells assessed as growth inhibition at 10 uM after 48 hrs by SRB assay relative to control; type: functional; settings: SW-620, 48 h, read-out: GI
[34] = Cytotoxicity against human SNB19 cells assessed as growth inhibition at 10 uM after 48 hrs by SRB assay relative to control; type: functional; settings: SNB-19, 48 h, read-out: GI
[35] = Cytotoxicity against human LOXIMVI cells assessed as growth inhibition at 10 uM after 48 hrs by SRB assay relative to control; type: functional; settings: LOX IMVI, read-out: GI
[36] = Cytotoxicity against human MOLT4 cells assessed as growth inhibition at 10 uM after 48 hrs by SRB assay relative to control; type: functional; settings: MOLT-4, 48 h, read-out: GI

Compound | inhibition of growth at 10 µM [1] [%] | inhibition of growth at 10 µM [2] [%] | inhibition of growth at 10 µM [3] [%] | inhibition of growth at 10 µM [4] [%] | inhibition (Ovis aries) [%] | inhibition of growth at 10 µM [5] [%] | inhibition of growth at 10 µM [6] [%] | inhibition of growth at 10 µM [7] [%] | inhibition of growth at 10 µM [8] [%] | inhibition of growth at 10 µM [9] [%] | inhibition of growth at 10 µM [10] [%] | inhibition of growth at 10 µM [11] [%] | inhibition of growth at 10 µM [12] [%] | inhibition of growth at 10 µM [13] [%] | inhibition of growth at 10 µM [14] [%] | inhibition of growth at 10 µM [15] [%] | inhibition of growth at 10 µM [16] [%] | inhibition of growth at 10 µM [17] [%] | inhibition of growth at 10 µM [18] [%] | inhibition of growth at 10 µM [19] [%] | also measured
COc1ccc(CN2c3ccccc3Sc3ccccc32)cc1F | 78 | 86 | 100 | 100 | 63 | 78 | 64 | 50 | 79 | 95 | 57 | 100 | 55 | 80 | 76 | 66 | 88 | 79 | 46 | 100 | inhibition of growth at 10 µM [20]: 78%; inhibition of growth at 10 µM [21]: 58%; inhibition of growth at 10 µM [22]: 100%; inhibition of growth at 10 µM [23]: 51%; inhibition of growth at 10 µM [24]: 54%; inhibition of growth at 10 µM [25]: 61%; inhibition of growth at 10 µM [26]: 95%; inhibition of growth at 10 µM [27]: 100%; inhibition of growth at 10 µM [28]: 84%; inhibition of growth at 10 µM [29]: 83%; inhibition of growth at 10 µM [30]: 60%; inhibition of growth at 10 µM [31]: 67%; inhibition of growth at 10 µM [32]: 50%; inhibition of growth at 10 µM [33]: 76%; inhibition of growth at 10 µM [34]: 65%; inhibition of growth at 10 µM [35]: 60%; inhibition of growth at 10 µM [36]: 73%
COc1ccc(CN2c3ccccc3Sc3ccccc32)cc1O | 86 | 82 | 91 | 93 | 64 | 92 | 70 | 45 | 74 | 100 | 14 | 100 | 73 | 64 | 59 | 63 | 96 | 82 | 64 | 99 | inhibition of growth at 10 µM [20]: 57%; inhibition of growth at 10 µM [21]: 58%; inhibition of growth at 10 µM [22]: 86%; inhibition of growth at 10 µM [23]: 54%; inhibition of growth at 10 µM [24]: 76%; inhibition of growth at 10 µM [25]: 54%; inhibition of growth at 10 µM [26]: 90%; inhibition of growth at 10 µM [27]: 91%; inhibition of growth at 10 µM [28]: 74%; inhibition of growth at 10 µM [29]: 71%; inhibition of growth at 10 µM [30]: 91%; inhibition of growth at 10 µM [31]: 28%; inhibition of growth at 10 µM [32]: 50%; inhibition of growth at 10 µM [33]: 69%; inhibition of growth at 10 µM [34]: 67%; inhibition of growth at 10 µM [35]: 57%; inhibition of growth at 10 µM [36]: 82%
COc1ccc(CN2c3ccccc3Oc3ccccc32)cc1O | 62 | 63 | 17 | 81 | 4 | 88 | 55 | 60 | 69 | 100 | 9 | 84 | 73 | 58 | 43 | 65 | 86 | 76 | 61 | 91 | inhibition of growth at 10 µM [20]: 57%; inhibition of growth at 10 µM [21]: 64%; inhibition of growth at 10 µM [22]: 82%; inhibition of growth at 10 µM [23]: 45%; inhibition of growth at 10 µM [24]: 68%; inhibition of growth at 10 µM [25]: 43%; inhibition of growth at 10 µM [26]: 87%; inhibition of growth at 10 µM [27]: 93%; inhibition of growth at 10 µM [28]: 73%; inhibition of growth at 10 µM [29]: 69%; inhibition of growth at 10 µM [30]: 100%; inhibition of growth at 10 µM [31]: 55%; inhibition of growth at 10 µM [32]: 67%; inhibition of growth at 10 µM [33]: 73%; inhibition of growth at 10 µM [34]: 65%; inhibition of growth at 10 µM [35]: 61%; inhibition of growth at 10 µM [36]: 75%
